Test results from patent US9000044B2, “Substituted naphthylacetic acids” (Hoffmann-La Roche Inc., priority 2012, dated 2015).

Molecular target: T1, human CRTH2 (Homo sapiens (Human), UniProt Q9Y5Y4)
Assay: Human CRTH2 Receptor Binding Assay (whole cell, [3H]ramatroban)
Details: CHO-K1 cells expressing human CRTH2 and G-alpha16; 20 nM [3H]ramatroban; 1 hour, room temperature
Text: Human CRTH2 Receptor Binding Assay
A whole cell receptor binding assay using [^3H]ramatroban as the competing radioactive ligand was employed to evaluate the compound binding activity to human CRTH2. The radioactive ligand [^3H]ramatroban was synthesized according to Sugimoto et. al. (Eur. J. Pharmacol. 524, 30-37, 2005) to a specific activity of 42 Ci/mmol.
A cell line stably expressing human CRTH2 was established by transfecting CHO-K1 cells with two mammalian expression vectors that harbored human CRTH2 and G-alpha16 cDNAs, respectively, using FuGene® 6 transfection reagent (from Roche). Stable clones expressing CRTH2 were selected by staining each clone with BM16 (BD Pharmingen™ from BD Biosciences, a division of Becton, Dickinson and Company), which is a rat monoclonal antibody to human CRTH2. The cells were maintained as monolayer cultures in Ham's F-12 medium containing 10% fetal bovine serum, 100 units/mL penicillin, 100 μg/mL streptomycin, 2 mM glutamine, 0.5 mg/mL G418 (geneticin) for CRTH2, and 0.2 mg/mL hygromycin-B (for G-alpha 16). For whole cell receptor binding assay, the monolayer cells were rinsed once with PBS (phosphate buffered saline), dissociated using ethylenediaminetetraacetate (Versene™ EDTA from Lonza Inc.), and suspended in PBS containing 10 mM MgCl2 and 0.06% BSA (bovine serum albumin) at 1.5×10^6 cells/mL.
The binding reactions (0.2 mL) were performed in 96-well plates at room temperature in PBS containing 1.5×10^5 cells, 10 mM MgCl2, 0.06% BSA, 20 nM [^3H]ramatroban, and test compound at various concentrations. After 1 hour of binding reactions, the cells were harvested on GF™/B filter microplates (microtiter plates with embedded glass fiber from PerkinElmer, Inc.) and washed 5 times with PBS using a Filtermate™ Harvester (a cell harvester that harvests and washes cells from microplates from PerkinElmer, Inc.). The radioactivities bound to the cells were determined using a microplate scintillation counter (TopCount® NXT, from PerkinElmer, Inc.) after adding 50 μL of Microscint™ 20 scintillation fluid (from PerkinElmer, Inc.) to each well of the filter plates. The radioactivity from non-specific binding was determined by replacing compound with 10 μM of 15(R)-15-methyl PGD2 (from Cayman Chemical Company) in the reaction mixtures. The radioactivity bound to the cells in the absence of compound (total binding) was determined by replacing compound with 0.25% of DMSO (dimethyl sulfoxide) in the reaction mixture. Specific binding data were obtained by subtracting the radioactivity of non-specific binding from each binding data.
The IC50 value is defined as the concentration of the tested compound that is required for 50% inhibition of total specific binding. In order to calculate the IC50 value, the percent inhibition data were determined for 7 concentrations for each compound. The percent inhibition for a compound at each concentration was calculated according to the following formula, [1-(specific binding in the presence of compound)/(total specific binding)]×100. The IC50 value was then obtained by fitting the percent inhibition data to a sigmoidal dose-response (4 parameter logistic) model in the XLfit® software Excel add-in program [from ID Business Solutions Ltd., model 205, where F(x)=(A+(B−A)/(1+((C/x)^D)))].

T1 sequence (Q9Y5Y4 whole entry): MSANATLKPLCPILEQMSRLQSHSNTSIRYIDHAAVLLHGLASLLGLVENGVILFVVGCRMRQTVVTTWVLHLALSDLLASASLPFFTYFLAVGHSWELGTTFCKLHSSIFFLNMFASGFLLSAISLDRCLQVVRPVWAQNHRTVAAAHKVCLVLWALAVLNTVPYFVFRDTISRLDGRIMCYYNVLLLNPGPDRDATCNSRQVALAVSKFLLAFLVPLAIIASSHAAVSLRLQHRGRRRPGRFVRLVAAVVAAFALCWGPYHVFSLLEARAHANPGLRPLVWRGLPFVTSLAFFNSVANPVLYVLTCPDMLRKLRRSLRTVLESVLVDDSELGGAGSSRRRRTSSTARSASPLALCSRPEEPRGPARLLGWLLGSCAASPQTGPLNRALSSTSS

Row | SMILES | IC50
1 | Cc1ccccc1S(=O)(=O)Nc1ccc(-c2c(C)c(CC(=O)O)cc3ccc(Cl)cc23)cc1 [Example 63, {6-Chloro-3-methyl-4-[4-(toluene-2-sulfonylamino)-phenyl]-naphthalen-2-yl}-acetic acid] | 8.3 nM
2 | Cc1c(CC(=O)O)cc2ccc(Cl)cc2c1-c1ccc(NS(=O)(=O)c2ccccc2)cc1 [Example 61, [4-(4-Benzenesulfonylamino-phenyl)-6-chloro-3-methyl-naphthalen-2-yl]-acetic acid] | 3.7 nM
3 | Cc1c(CC(=O)O)cc2ccc(F)cc2c1-c1ccc(S(C)(=O)=O)cn1 [Example 58, [6-Fluoro-4-(5-methanesulfonyl-pyridin-2-yl)-3-methyl-naphthalen-2-yl]-acetic acid] | 139 nM
4 | Cc1c(CC(=O)O)cc2ccc(F)cc2c1-c1ccc(NS(=O)(=O)c2cc(C(F)(F)F)cc(C(F)(F)F)c2)cc1 [Example 60, {4-[4-(3,5-Bis-trifluoromethyl-benzenesulfonylamino)-phenyl]-6-fluoro-3-methyl-naphthalen-2-yl}-acetic acid] | 5.6 nM
5 | Cc1ccccc1S(=O)(=O)c1ccc(-c2c(C)c(CC(=O)O)cc3ccc(F)cc23)cc1 [Example 1, {6-Fluoro-3-methyl-4-[4-(toluene-2-sulfonyl)-phenyl]-naphthalen-2-yl}-acetic acid] | 2.9 nM
6 | Cc1c(CC(=O)O)cc2ccc(F)cc2c1-c1ccc(NS(=O)(=O)c2ccccc2)cc1 [Example 59, [4-(4-Benzenesulfonylamino-phenyl)-6-fluoro-3-methyl-naphthalen-2-yl]-acetic acid] | 3.2 nM
7 | Cc1c(CC(=O)O)cc2ccc(Cl)cc2c1-c1ccc(NC(=O)Nc2ccccc2)cc1 [Example 66, {6-Chloro-3-methyl-4-[4-(3-phenyl-ureido)-phenyl]-naphthalen-2-yl}-acetic acid] | 19 nM
8 | CC(=O)Nc1ccc(-c2c(C)c(CC(=O)O)cc3ccc(Cl)cc23)cc1 [Example 64, [4-(4-Acetylamino-phenyl)-6-chloro-3-methyl-naphthalen-2-yl]-acetic acid] | 29.2 nM
9 | Cc1c(CC(=O)O)cc2ccc(Cl)cc2c1-c1ccc(NC(=O)c2ccccc2)cc1 [Example 65, [4-(4-Benzoylamino-phenyl)-6-chloro-3-methyl-naphthalen-2-yl]-acetic acid] | 6.2 nM
10 | Cc1c(CC(=O)O)cc2ccc(Cl)cc2c1-c1ccc(S(=O)(=O)N2CCOCC2)cc1 [Example 55, {6-Chloro-3-methyl-4-[4-(morpholino-4-sulfonyl)-phenyl]-naphthalen-2-yl}-acetic acid] | 2.4 nM
11 | Cc1c(CC(=O)O)cc2ccc(Cl)cc2c1-c1ccc(NS(=O)(=O)c2ccccc2C(F)(F)F)cc1 [Example 62, {6-Chloro-3-methyl-4-[4-(2-trifluoromethyl-benzenesulfonylamino)-phenyl]-naphthalen-2-yl}-acetic acid] | 8.9 nM

Molecular target: T1, human CRTH2
Assay: Calcium Flux Assay Using Fluorometric Imaging Plate Reader (FLIPR)
Assay type: cell-based
Details: CHO-K1 cells with G-alpha 16 and human CRTH2; inhibition of DK-PGD2 ligand-induced Ca2+ flux
Method: Calcium Flux Assay Using Fluorometric Imaging Plate Reader (FLIPR)
Cell Culture Conditions: CHO-K1 cells previously transfected with G-alpha 16 were subsequently transfected with the human CRTH2 receptor and the neomycin resistance gene. Following selection in 800 μg/mL G418 (geneticin), individual clones were assayed for their receptor expression based on staining with an anti human CRTH2 IgG, followed by assaying for their response to 13,14-dihydro-15-keto Prostaglandin D2 (DK-PDG2) (ligand) in the Ca^2+ Flux assay. Positive clones were then cloned by limiting dilution cloning. The transfected cells were cultured in Ham's F-12 medium supplemented with 10% fetal bovine serum, 2 mM glutamine, 100 U/mL penicillin/100 μg/mL streptomycin, 200 μg/mL hygromycin B, and 800 μg/mL G418 (geneticin). Cells were harvested with trypsin-EDTA (trypsin-ethylenediaminetetraacetic acid) and counted using ViaCount® reagent (from Guava Technologies, Inc. which contains two DNA-binding dyes that enable the reagent user to distinguish between viable and non-viable cells). The cell suspension volume was adjusted to 2.5×10^5 cells/mL with complete growth media. Aliquots of 50 μL were dispensed into BD Falcon™ 384 well black/clear microplates (from BD Biosciences, a division of Becton, Dickinson and Company) and the microplates were placed in a 37° C. CO2 incubator overnight. The following day, the microplates were used in the assay.
Loading Buffer containing dye (from the FLIPR® Calcium 3 Assay Kit from Molecular Devices, a division of MDS Analytical Technologies and MDS Inc.) was prepared by dissolving the contents of one bottle into 200 mL Hank's Balanced Salt Solution containing 20 mM HEPES (4-(2-hydroxyethyl)-1-piperazineethanesulfonic acid) and 2.5 mM probenecid. Growth media was removed from the cell plates and 25 μL of Hank's Balanced Salt Solution (HBSS) containing 20 mM HEPES, 0.05% BSA and 2.5 mM probenecid was added to each well followed by 25 μL of diluted dye using a Multidrop dispenser. The plates were then incubated for 1 hour at 37° C.
During the incubation, test compound plates were prepared by adding 90 μL of HBSS/20 mM HEPES/0.005% BSA buffer to the 2 μL of serial diluted compounds. To prepare serial diluted compounds, 20 mM stocks of compounds were dissolved in 100% DMSO. The compound dilution plate was set up as follows: well #1 received 5 μL of compound plus 10 μL of DMSO. Wells 2-10 received 10 μL of DMSO. 5 μL was mixed and transferred from well #1 into well #2. 1:3 serial dilutions were continued out 10 steps. 2 μL of diluted compound was transferred into duplicate wells of a 384 well “assay plate” and then 90 μL of buffer was added.
After incubation, both the cell and “assay plate” plates were brought to the fluorometric imaging plate reader (FLIPR®) and 20 μL of the diluted compounds were transferred to the cell plates by the FLIPR®. Plates were then incubated for 1 hour at room temperature. […] During the assay, fluorescence readings were taken simultaneously from all 384 wells of the cell plate every 1.5 seconds. Five readings were taken to establish a stable baseline, then 20 μL of sample was rapidly (30 μL/sec) and simultaneously added to each well of the cell plate. The fluorescence was continuously monitored before, during and after sample addition for a total elapsed time of 100 seconds. Responses (increase in peak fluorescence) in each well following agonist addition were determined. The initial fluorescence reading from each well, prior to ligand stimulation, was used as a zero baseline value for the data from that well. The responses were expressed as % inhibition of the buffer control.

Row | SMILES | IC50
12 | Cc1c(CC(=O)O)cc2ccc(F)cc2c1-c1ccc(S(C)(=O)=O)cn1 [Example 58, [6-Fluoro-4-(5-methanesulfonyl-pyridin-2-yl)-3-methyl-naphthalen-2-yl]-acetic acid] | 1120 nM
13 | Cc1c(CC(=O)O)cc2ccc(F)cc2c1-c1ccc(NS(=O)(=O)c2cc(C(F)(F)F)cc(C(F)(F)F)c2)cc1 [Example 60, {4-[4-(3,5-Bis-trifluoromethyl-benzenesulfonylamino)-phenyl]-6-fluoro-3-methyl-naphthalen-2-yl}-acetic acid] | 0.1 nM
14 | Cc1ccccc1S(=O)(=O)c1ccc(-c2c(C)c(CC(=O)O)cc3ccc(F)cc23)cc1 [Example 1, {6-Fluoro-3-methyl-4-[4-(toluene-2-sulfonyl)-phenyl]-naphthalen-2-yl}-acetic acid] | 0.3 nM
15 | COc1ccc(CN(C(C)C)S(=O)(=O)c2ccc(-c3c(C)c(CC(=O)O)cc4ccc(Cl)cc34)cc2)cc1 [Example 40, (6-Chloro-4-{4-[isopropyl-(4-methoxy-benzyl)-sulfamoyl]-phenyl}-3-methyl-naphthalen-2-yl)-acetic acid] | 3.1 nM
16 | Cc1c(CC(=O)O)cc2ccc(Cl)cc2c1-c1ccc(S(=O)(=O)c2ccccc2C(F)(F)F)cc1 [Example 18, {6-Chloro-3-methyl-4-[4-(2-trifluoromethyl-benzenesulfonyl)-phenyl]-naphthalen-2-yl}-acetic acid] | 2.3 nM
17 | Cc1c(CC(=O)O)cc2ccc(Cl)cc2c1-c1ccc(S(=O)(=O)Nc2cccc(Cl)c2)cc1 [Example 32, {6-Chloro-4-[4-(3-chloro-phenylsulfamoyl)-phenyl]-3-methyl-naphthalen-2-yl}-acetic acid] | 4.7 nM
18 | Cc1c(CC(=O)O)cc2ccc(F)cc2c1-c1ccc(S(=O)(=O)c2ccc(Cl)cc2Cl)cc1 [Example 8, {4-[4-(2,4-Dichloro-benzenesulfonyl)-phenyl]-6-fluoro-3-methyl-naphthalen-2-yl}-acetic acid] | 9.1 nM
19 | Cc1c(CC(=O)O)cc2ccc(Cl)cc2c1-c1ccc(S(=O)(=O)NC2CCCCC2)cc1 [Example 36, [6-Chloro-4-(4-cyclohexylsulfamoyl-phenyl)-3-methyl-naphthalen-2-yl]-acetic acid] | 6.1 nM
20 | Cc1c(CC(=O)O)cc2ccc(F)cc2c1-c1ccc(S(=O)(=O)Nc2cccc(Cl)c2)cc1 [Example 45, {4-[4-(3-Chloro-phenylsulfamoyl)-phenyl]-6-fluoro-3-methyl-naphthalen-2-yl}-acetic acid] | 1.5 nM
21 | Cc1c(CC(=O)O)cc2ccc(Cl)cc2c1-c1ccc(S(=O)(=O)Nc2ccc(F)cc2)cc1 [Example 28, {6-Chloro-4-[4-(4-fluoro-phenylsulfamoyl)-phenyl]-3-methyl-naphthalen-2-yl}-acetic acid] | 1.1 nM
22 | Cc1c(CC(=O)O)cc2ccc(Cl)cc2c1-c1ccc(S(=O)(=O)NCc2ccccc2)cc1 [Example 38, [4-(4-Benzylsulfamoyl-phenyl)-6-chloro-3-methyl-naphthalen-2-yl]-acetic acid] | 1.6 nM
23 | Cc1c(CC(=O)O)cc2ccc(F)cc2c1-c1ccc(S(=O)(=O)c2ccccc2Cl)cc1 [Example 2, {4-[4-(2-Chloro-benzenesulfonyl)-phenyl]-6-fluoro-3-methyl-naphthalen-2-yl}-acetic acid] | 0.7 nM
